Experimental data published in PubChem BioAssay AID2060903 (Molecular Pharmacology Branch, DTP, NCI, 2025).

Tested on: 377384-186-R-J1-PDC complex spheroid viability
Assay: Anticancer human tumor 377384-186-R-J1-PDC patient-derived pancreatic carcinoma cell line growth inhibition [RAS]
Details: for IC50: curve of first compound; for viability, T/C: stronger effect = lower value
How it was run: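 Agents were tested in combination matrices in half-log decrements from a top concentration at or near clinical Cmax (10 microM if undetermined). Targets were multi-cell spheroids of tumour lines plus HUVEC and MSC stromal cells.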
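Note: spheroids exposed to compounds for seven days before readout.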

In the case of `CCN1CCN(Cc2ccc(Nc3ncc(F)c(-c4cc(F)c5nc(C)n(C(C)C)c5c4)n3)nc2)CC1` + CCn1c(-c2cc(N3CCN(C)CC3)cnc2C(C)OC)c2c3cc(ccc31)-c1csc(n1)CC(NC(=O)C1CC1C)C(=O)N1CCCC(N1)C(=O)OCC(C)(C)C2, the IC50 (second compound 0.000949 µM) is reported as < 3.16 nM, the IC50 (second compound 0.003 µM) is reported as < 3.16 nM and the IC50 (second compound 0.00949 µM) is reported as < 3.16 nM. For the same molecule, the IC50 (second compound 0.03 µM) was < 3.16 nM, the IC50 (second compound 0.0949 µM) was < 3.16 nM and the IC50 (second compound 0.3 µM) was < 3.16 nM. It also gave a viability, T/C (second compound 0.000949 µM, first compound 0.00316 µM) of 49.8%, a viability, T/C (second compound 0.000949 µM, first compound 0.01 µM) of 45% and a viability, T/C (second compound 0.000949 µM, first compound 0.0316 µM) of 35.2%. The viability, T/C (second compound 0.000949 µM, first compound 0.1 µM) was 24.1%, the viability, T/C (second compound 0.000949 µM, first compound 0.316 µM) was 16.6% and the viability, T/C (second compound 0.000949 µM, first compound 1 µM) was 11.2%. The viability, T/C (second compound 0.003 µM, first compound 0.00316 µM) was 15.5%, the viability, T/C (second compound 0.003 µM, first compound 0.01 µM) was 14.5% and the viability, T/C (second compound 0.003 µM, first compound 0.0316 µM) was 15.9%. For the same molecule, the viability, T/C (second compound 0.003 µM, first compound 0.1 µM) was 10.2%, the viability, T/C (second compound 0.003 µM, first compound 0.316 µM) was 6.69% and the viability, T/C (second compound 0.003 µM, first compound 1 µM) was 4.94%. The viability, T/C (second compound 0.00949 µM, first compound 0.00316 µM) was 6.06%, the viability, T/C (second compound 0.00949 µM, first compound 0.01 µM) was 5.48% and the viability, T/C (second compound 0.00949 µM, first compound 0.0316 µM) was 4.58%. For the same molecule, the viability, T/C (second compound 0.00949 µM, first compound 0.1 µM) was 3.84%, the viability, T/C (second compound 0.00949 µM, first compound 0.316 µM) was 3.67% and the viability, T/C (second compound 0.00949 µM, first compound 1 µM) was 2.8%. For the same molecule, the viability, T/C (second compound 0.03 µM, first compound 0.00316 µM) was 3.02%, the viability, T/C (second compound 0.03 µM, first compound 0.01 µM) was 2.33% and the viability, T/C (second compound 0.03 µM, first compound 0.0316 µM) was 2.87%. The viability, T/C (second compound 0.03 µM, first compound 0.1 µM) was 2.54%, the viability, T/C (second compound 0.03 µM, first compound 0.316 µM) was 2.06% and the viability, T/C (second compound 0.03 µM, first compound 1 µM) was 2.27%. The viability, T/C (second compound 0.0949 µM, first compound 0.00316 µM) was 1.82%, the viability, T/C (second compound 0.0949 µM, first compound 0.01 µM) was 1.82% and the viability, T/C (second compound 0.0949 µM, first compound 0.0316 µM) was 1.85%. It also gave a viability, T/C (second compound 0.0949 µM, first compound 0.1 µM) of 2.2%, a viability, T/C (second compound 0.0949 µM, first compound 0.316 µM) of 2.06% and a viability, T/C (second compound 0.0949 µM, first compound 1 µM) of 1.76%. It also gave a viability, T/C (second compound 0.3 µM, first compound 0.00316 µM) of 1.71%, a viability, T/C (second compound 0.3 µM, first compound 0.01 µM) of 3.5% and a viability, T/C (second compound 0.3 µM, first compound 0.0316 µM) of 2.34%. For the same molecule, the viability, T/C (second compound 0.3 µM, first compound 0.1 µM) was 1.78%, the viability, T/C (second compound 0.3 µM, first compound 0.316 µM) was 2.27% and the viability, T/C (second compound 0.3 µM, first compound 1 µM) was 1.13%.
